Holding throughout (format): cell-based
In one test the target is human A2A receptor (Homo sapiens, UniProt P29274). Description: Functional A2A receptor activity, recombinant HEK293 cells, cAMP (HTRF), agonist NECA. Also noted: expressed in transfected cells; host or cells: HEK293. The conditions noted are these: read-out: Functional A2A receptor activity, HEK293, cAMP, IC50. Here is the method:
(§1) The functional activities of human A2A, A2B, A1 and A3 receptors were determined by quantification of cAMP, being the second messenger for adenosine receptors.
(§2) Cells were seeded into 384-well plates, forskolin, test compounds and agonists (CPA for A1- and IB-MECA for A3-receptor) were added. After 30 min incubation, HTRF reagents (cAMP dynamic 2, Cis Bio) were added and the cellular cAMP levels were determined using the ENVISION (Perkin Elmer) plate reader. Obtained raw data were normalized against the inhibitor control and the neural control (DMSO) and the normalized data were fitted using GeneData software.
(In TR-FRET formats the signal depends on donor and acceptor labels being close together.)

A further test has as its target T1, human A3 receptor (Homo sapiens, UniProt P0DMS8).
T1 construct: expressed in transfected cells; host or cells: CHO
T1 sequence (P0DMS8 1-318): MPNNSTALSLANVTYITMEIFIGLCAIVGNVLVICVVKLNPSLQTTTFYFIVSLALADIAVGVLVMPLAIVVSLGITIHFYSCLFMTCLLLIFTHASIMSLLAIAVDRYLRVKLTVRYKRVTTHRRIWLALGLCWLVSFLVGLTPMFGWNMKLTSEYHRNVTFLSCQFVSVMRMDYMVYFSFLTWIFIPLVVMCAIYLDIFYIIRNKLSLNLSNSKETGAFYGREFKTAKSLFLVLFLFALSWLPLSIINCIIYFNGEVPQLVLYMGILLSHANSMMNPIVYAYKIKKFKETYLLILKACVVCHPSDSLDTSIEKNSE
Description: Functional A3 receptor activity, recombinant CHO cells, cAMP (HTRF), forskolin, agonist IB-MECA. The conditions noted are these: recombinant CHO cells, forskolin, agonist IB-MECA, read-out: Functional A3 receptor activity, CHO, cAMP, IC50. Here is the method: as §1
(§3) For human A1 and A3 receptors, recombinant CHO cells, expressing either A1 or A3-receptor, were used. As both receptors couple to Gi proteins, the assay protocol was adapted:
as §2

Another test addresses T2, human A2B receptor (Homo sapiens, UniProt P29275).
T2 construct: expressed in transfected cells; host or cells: HEK293
T2 sequence (P29275 1-332): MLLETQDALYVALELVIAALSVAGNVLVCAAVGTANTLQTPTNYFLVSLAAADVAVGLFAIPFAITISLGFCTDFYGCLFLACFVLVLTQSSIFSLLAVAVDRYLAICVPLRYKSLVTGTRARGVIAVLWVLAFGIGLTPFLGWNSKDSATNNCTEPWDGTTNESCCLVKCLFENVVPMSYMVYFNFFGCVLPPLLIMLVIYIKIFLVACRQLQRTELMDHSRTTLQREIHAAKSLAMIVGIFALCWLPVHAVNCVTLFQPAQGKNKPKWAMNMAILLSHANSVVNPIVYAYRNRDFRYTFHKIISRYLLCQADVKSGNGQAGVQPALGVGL
Description: Functional A2B receptor activity, recombinant HEK293 cells, cAMP (HTRF), agonist NECA. To be noted: read-out: Functional A2B receptor activity, HEK293, cAMP, IC50. Here is the method:
as §1, §2

The target of another test is T3, human A1 receptor (Homo sapiens, UniProt P30542).
T3 construct: expressed in transfected cells; host or cells: CHO
T3 sequence (P30542 1-326): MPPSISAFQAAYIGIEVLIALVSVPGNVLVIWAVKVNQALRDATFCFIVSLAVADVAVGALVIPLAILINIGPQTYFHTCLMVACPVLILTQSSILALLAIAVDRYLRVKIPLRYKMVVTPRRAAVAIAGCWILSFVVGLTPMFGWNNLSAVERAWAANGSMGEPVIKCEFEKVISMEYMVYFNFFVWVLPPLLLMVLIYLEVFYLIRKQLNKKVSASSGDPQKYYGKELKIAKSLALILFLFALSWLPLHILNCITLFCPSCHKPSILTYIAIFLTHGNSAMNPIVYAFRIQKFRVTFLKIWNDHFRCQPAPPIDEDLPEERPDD
The experiment in a line: Functional A1 receptor activity, recombinant CHO cells, cAMP (HTRF), forskolin, agonist CPA. The conditions noted are these: recombinant CHO cells, forskolin, agonist CPA, read-out: Functional A1 receptor activity, CHO, cAMP, IC50. How it is done: as §1, §3, §2

This note sets out measurements from patent publication US12344623B2, “Thiazolopyridine derivatives as adenosine receptor antagonists” (Merck Patent GmbH, priority 2019, dated 2025).

As usually defined, the IC50 is the concentration needed to halve the response being measured.

Like-named read-outs stand apart in the source and are kept apart here.

Chain of human A2A receptor (P29274 whole entry): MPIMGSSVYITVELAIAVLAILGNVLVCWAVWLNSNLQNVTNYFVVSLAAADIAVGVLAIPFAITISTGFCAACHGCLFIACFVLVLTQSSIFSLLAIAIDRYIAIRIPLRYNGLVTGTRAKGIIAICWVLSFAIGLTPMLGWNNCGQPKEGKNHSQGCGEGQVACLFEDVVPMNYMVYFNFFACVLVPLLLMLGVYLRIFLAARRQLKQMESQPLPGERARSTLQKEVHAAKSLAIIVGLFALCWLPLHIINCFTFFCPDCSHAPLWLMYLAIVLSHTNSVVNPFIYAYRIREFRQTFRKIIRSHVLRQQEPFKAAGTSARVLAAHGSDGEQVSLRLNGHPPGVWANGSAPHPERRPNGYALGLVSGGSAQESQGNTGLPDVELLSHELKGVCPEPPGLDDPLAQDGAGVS

In the case of `COc1ncc(-c2ccc(C)s2)c2sc(NC(=O)N3CCC4(CCOCC4)C3)nc12` [Compound 113, 8-Oxa-2-aza-spiro[4.5]decane-2-carboxylic acid [4-methoxy-7-(5-methyl-thiophen-2-yl)-thiazolo[4,5-c]pyridin-2-yl]-amide], the IC50 is under 10 nM on human A2A receptor, over 1000 nM on human A3 receptor, under 100 nM at human A2B receptor and over 1000 nM at human A1 receptor.
In the case of `COc1ncc(C2=CCSCC2)c2sc(NC(=O)N3CCC4(CCOCC4)C3)nc12` [Compound 64, 8-Oxa-2-aza-spiro[4.5]decane-2-carboxylic acid [7-(3,6-dihydro-2H-thiopyran-4-yl)-4-methoxy-thiazolo[4,5-c]pyridin-2-yl]-amide], the half-inhibitory concentration (IC50) at human A2A receptor was under 10 nM; on human A3 receptor, over 1000 nM; on human A2B receptor, under 10 nM; on human A1 receptor, under 1000 nM.
Regarding `COc1ncc(C2=CCOCC2)c2sc(NC(=O)c3c[nH]c(-c4ccccn4)n3)nc12` [Compound 162, 2-Pyridin-2-yl-1H-imidazole-4-carboxylic acid [7-(3,6-dihydro-2H-pyran-4-yl)-4-methoxy-thiazolo[4,5-c]pyridin-2-yl]-amide], the IC50 was under 10 nM at human A2A receptor, over 1000 nM at human A3 receptor, under 10 nM on human A2B receptor and under 1000 nM on human A1 receptor.
On to `COc1ncc(-c2cnn(C(C)(C)c3ccccc3)c2)c2sc(NC(=O)N3CCC4(CCOCC4)C3)nc12` [Compound 163, 8-Oxa-2-aza-spiro[4.5]decane-2-carboxylic acid {4-methoxy-7-[1-(1-methyl-1-phenyl-ethyl)-1H-pyrazol-4-yl]-thiazolo[4,5-c]pyridin-2-yl}-amide], for which the IC50 at human A2A receptor is under 10 nM; at human A3 receptor it was over 1000 nM; on human A2B receptor it was under 100 nM.
With `COc1cnc(N2CCOCC2)c2sc(NC(=O)N3CCCCC3)nc12` [drawing 192, reference compound], the IC50 on human A2A receptor is under 10 nM; on human A3 receptor (cAMP), under 100 nM; on human A2B receptor, under 1000 nM; on human A1 receptor (cAMP) it was over 1000 nM.
On to `COc1ncc(C2=CCC(OC)CC2)c2sc(NC(=O)N3CC[C@]4(CCCOC4)C3)nc12` (stereo partly drawn) [Compound 70, (5R)-N-[4-methoxy-7-(4-methoxycyclohex-1-en-1-yl)-[1,3]thiazolo[4,5-c]pyridin-2-yl]-7-oxa-2-azaspiro[4.5]decane-2-carboxamide], for which the IC50 on human A2A receptor is under 10 nM; on human A3 receptor it was over 1000 nM; at human A2B receptor it was under 1000 nM; at human A1 receptor, over 1000 nM.
As to `COc1ncc(-c2cnn(Cc3cccnc3)c2)c2sc(NC(=O)c3ccc(C(=O)O)cc3)nc12` [Compound 115, 4-[(4-methoxy-7-{1-[(pyridin-3-yl)methyl]-1H-pyrazol-4-yl}-[1,3]thiazolo[4,5-c]pyridin-2-yl)carbamoyl]benzoic acid], the IC50 at human A2A receptor was under 10 nM; on human A3 receptor, under 1000 nM; at human A2B receptor, under 10 nM.
Regarding `COc1ncc(-c2cnn(C[C@@H]3CCCCO3)c2)c2sc(NC(=O)N3CCC4(CCOCC4)C3)nc12` [Compound 118, 8-Oxa-2-aza-spiro[4.5]decane-2-carboxylic acid (4-methoxy-7-{1-[(S)-1-(tetrahydro-pyran-2-yl)methyl]-1H-pyrazol-4-yl}-thiazolo[4,5-c]pyridin-2-yl)-amide], the IC50 on human A2A receptor was under 10 nM; on human A3 receptor it was over 1000 nM; at human A2B receptor, under 100 nM.
As for `COc1ncc(C2=CCOCC2)c2sc(NC(=O)c3cnn(Cc4ncc[nH]4)c3)nc12` [Compound 158, 1-(1H-Imidazol-2-ylmethyl)-1H-pyrazole-4-carboxylic acid [7-(3,6-dihydro-2H-pyran-4-yl)-4-methoxy-thiazolo[4,5-c]pyridin-2-yl]-amide], the IC50 is under 10 nM on human A2A receptor, over 1000 nM at human A3 receptor and under 10 nM on human A2B receptor.
On to `COc1ncc(C2=CCOCC2)c2sc(NC(=O)c3cn[nH]c3)nc12` [Compound 116, N-[7-(3,6-dihydro-2H-pyran-4-yl)-4-methoxy-[1,3]thiazolo[4,5-c]pyridin-2-yl]-1H-pyrazole-4-carboxamide], for which the IC50 is under 10 nM at human A2A receptor, under 1000 nM at human A3 receptor and under 10 nM at human A2B receptor.
As to `COc1ncc(C2=CCOCC2)c2sc(NC(=O)c3ccc(C(=O)NCCN4CCC4)cc3)nc12` [Compound 139, N-(2-Azetidin-1-yl-ethyl)-N′-[7-(3,6-dihydro-2H-pyran-4-yl)-4-methoxy-thiazolo[4,5-c]pyridin-2-yl]-terephthalamide], the IC50 was under 10 nM at human A2A receptor, over 1000 nM at human A3 receptor and under 100 nM at human A2B receptor.
Turning to `COc1ncc(-c2ccccc2)c2sc(NC(=O)c3cn[nH]c3)nc12` [Compound 117, N-{4-methoxy-7-phenyl-[1,3]thiazolo[4,5-c]pyridin-2-yl}-1H-pyrazole-4-carboxamide], the values for the IC50 on human A2A receptor, on human A3 receptor and at human A2B receptor were under 10 nM, under 1000 nM and under 10 nM, respectively.
For `COc1ncc(-c2cccc(NS(C)(=O)=O)c2)c2sc(NC(=O)N3CCC4(CCOCC4)C3)nc12` [Compound 120, 8-Oxa-2-aza-spiro[4.5]decane-2-carboxylic acid [7-(3-methanesulfonylamino-phenyl)-4-methoxy-thiazolo[4,5-c]pyridin-2-yl]-amide], the IC50 was under 100 nM at human A2A receptor, over 1000 nM on human A3 receptor and over 1000 nM on human A1 receptor.
On to `COc1ncc(-c2cnn(C[C@@H]3CCCOC3)c2)c2sc(NC(=O)N3CCC4(CCOCC4)C3)nc12` [Compound 105, 8-Oxa-2-aza-spiro[4.5]decane-2-carboxylic acid (4-methoxy-7-{1-[(S)-1-(tetrahydro-pyran-3-yl)methyl]-1H-pyrazol-4-yl}-thiazolo[4,5-c]pyridin-2-yl)-amide], for which the IC50 at human A2A receptor was under 10 nM; at human A3 receptor, over 1000 nM; at human A2B receptor, under 100 nM.
Turning to `COc1cnc(N2CCOCC2)c2sc(NC(=O)N3CCC4(CCN(C)C4=O)CC3)nc12` [drawing 186, reference compound], the IC50 at human A2A receptor was under 100 nM; at human A3 receptor (cAMP), over 1000 nM; at human A2B receptor, over 1000 nM.
In the case of `COC(=O)N(C)Cc1ccc(C(=O)Nc2nc3c(OC)ncc(C4=CCOCC4)c3s2)cc1` [Compound 167, {4-[7-(3,6-Dihydro-2H-pyran-4-yl)-4-methoxy-thiazolo[4,5-c]pyridin-2-ylcarbamoyl]-benzyl}-methyl-carbamic acid methyl ester], the IC50 is under 10 nM on human A2A receptor, over 1000 nM at human A3 receptor and under 10 nM at human A2B receptor.
As to `COc1ncc(-c2cnn(C[C@H]3CCCOC3)c2)c2sc(NC(=O)N3CCC4(CCOCC4)C3)nc12` [Compound 104, 8-Oxa-2-aza-spiro[4.5]decane-2-carboxylic acid (4-methoxy-7-{1-[(R)-1-(tetrahydro-pyran-3-yl)methyl]-1H-pyrazol-4-yl}-thiazolo[4,5-c]pyridin-2-yl)-amide], the IC50 on human A2A receptor is under 10 nM; on human A3 receptor, over 1000 nM; on human A2B receptor, under 100 nM.
On the same counts, the results for `COc1ncc(-c2cnn(C[C@H]3CCCCO3)c2)c2sc(NC(=O)N3CCC4(CCOCC4)C3)nc12` [Compound 119, 8-Oxa-2-aza-spiro[4.5]decane-2-carboxylic acid (4-methoxy-7-{1-[(R)-1-(tetrahydro-pyran-2-yl)methyl]-1H-pyrazol-4-yl}-thiazolo[4,5-c]pyridin-2-yl)-amide] are under 10 nM, over 1000 nM and under 100 nM.
